Data reported in ChEMBL document CHEMBL1201861, “Genomics of Drug Sensitity in Cancer screening data, Wellcome Trust Sanger Institute”.
pIC50: −log10 of the molar value.

Tests used:
NCI-H1770 = experiment: cells; format: functional, cell-based, Homo sapiens; conditions: Homo sapiens, NCI-H1770;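 further: growth inhibition of NCI-H1770 cells determined with a viability readout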
Description: SANGER: Inhibition of human NCI-H1770 cell growth in a cell viability assay.

BEN = experiment: cells; format: functional, cell-based, Homo sapiens; conditions: Homo sapiens, BEN;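 further: growth inhibition of the BEN cell line, read out with a cell viability assay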
Description: SANGER: Inhibition of human BEN cell growth in a cell viability assay.

NCI-H522 = experiment: cells; format: functional, cell-based, Homo sapiens; conditions: Homo sapiens, NCI-H522;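 further: cell viability assay measuring growth inhibition of human NCI-H522 cells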
Description: SANGER: Inhibition of human NCI-H522 cell growth in a cell viability assay.

GP5d = experiment: cells; format: functional, cell-based, Homo sapiens; conditions: Homo sapiens, GP5d;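 further: growth inhibition of human GP5d cells, read out with a cell viability assay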
Description: SANGER: Inhibition of human GP5d cell growth in a cell viability assay.

EB-3 = experiment: cells; format: functional, cell-based, Homo sapiens; conditions: Homo sapiens, EB-3;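 further: human EB-3 cells, growth inhibition read out via a cell viability assay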
Description: SANGER: Inhibition of human EB-3 cell growth in a cell viability assay.

GI-ME-N = experiment: cells; format: functional, cell-based, Homo sapiens; conditions: Homo sapiens, GI-ME-N;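 further: growth inhibition of human GI-ME-N cells, read out with a cell viability assay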
Description: SANGER: Inhibition of human GI-ME-N cell growth in a cell viability assay.

EGI-1 = experiment: cells; format: functional, cell-based, Homo sapiens; conditions: Homo sapiens, EGI-1;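 further: cell viability readout used to gauge growth inhibition of EGI-1 cells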
Description: SANGER: Inhibition of human EGI-1 cell growth in a cell viability assay.

MKN-7 = experiment: cells; format: functional, cell-based, Homo sapiens; conditions: Homo sapiens, MKN-7;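 further: growth inhibition of MKN-7 cells, read out with a cell viability assay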
Description: SANGER: Inhibition of human MKN7 cell growth in a cell viability assay.

RS4-11 = experiment: cells; format: functional, cell-based, Homo sapiens; conditions: Homo sapiens, RS4-11;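 further: growth inhibition of RS4-11 cells, read out by a cell viability assay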
Description: SANGER: Inhibition of human RS4-11 cell growth in a cell viability assay.

NCI-H2141 = experiment: cells; format: functional, cell-based, Homo sapiens; conditions: Homo sapiens, NCI-H2141;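 further: growth inhibition of human NCI-H2141 cells, read out with a cell viability assay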
Description: SANGER: Inhibition of human NCI-H2141 cell growth in a cell viability assay.

SCC-9 = experiment: cells; format: functional, cell-based, Homo sapiens; conditions: Homo sapiens, SCC-9;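 further: Read-out is a cell viability assay, with values giving inhibition of cell growth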
Description: SANGER: Inhibition of human SCC-9 cell growth in a cell viability assay.

BB49-HNC = experiment: cells; format: functional, cell-based, Homo sapiens; conditions: Homo sapiens, BB49-HNC;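 further: cell viability assay read-out, reported as inhibition of BB49-HNC cell growth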
Description: SANGER: Inhibition of human BB49-HNC cell growth in a cell viability assay.

A-375 = experiment: cells; format: functional, cell-based, Homo sapiens; conditions: Homo sapiens, A-375;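 further: growth inhibition of A375 cells, read out with a cell viability assay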
Description: SANGER: Inhibition of human A375 cell growth in a cell viability assay.

NCI-H1437 = experiment: cells; format: functional, cell-based, Homo sapiens; conditions: Homo sapiens, NCI-H1437;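 further: growth inhibition of human NCI-H1437 cells, read out by a cell viability assay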
Description: SANGER: Inhibition of human NCI-H1437 cell growth in a cell viability assay.

DU-4475 = experiment: cells; format: functional, cell-based, Homo sapiens; conditions: Homo sapiens, DU-4475
Description: SANGER: Inhibition of human DU-4475 cell growth in a cell viability assay.

LAN-6 = experiment: cells; format: functional, cell-based, Homo sapiens; conditions: Homo sapiens, LAN-6;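 further: growth inhibition of LAN-6 cells, determined with a cell viability assay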
Description: SANGER: Inhibition of human LAN-6 cell growth in a cell viability assay.

U-118-MG = experiment: cells; format: functional, cell-based, Homo sapiens; conditions: Homo sapiens, U-118-MG
Description: SANGER: Inhibition of human U-118-MG cell growth in a cell viability assay.

Ca9-22 = experiment: cells; format: functional, cell-based, Homo sapiens; conditions: Homo sapiens, Ca9-22;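 further: growth inhibition of Ca9-22 cells, read out with a cell viability assay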
Description: SANGER: Inhibition of human Ca9-22 cell growth in a cell viability assay.

HD-MY-Z = experiment: cells; format: functional, cell-based, Homo sapiens; conditions: Homo sapiens, HD-MY-Z;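 further: growth inhibition of HD-MY-Z cells, read out with a cell viability assay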
Description: SANGER: Inhibition of human HD-MY-Z cell growth in a cell viability assay.

NCI-H1155 = experiment: cells; format: functional, cell-based, Homo sapiens; conditions: Homo sapiens, NCI-H1155
Description: SANGER: Inhibition of human NCI-H1155 cell growth in a cell viability assay.

ChaGo-K-1 = experiment: cells; format: functional, cell-based, Homo sapiens; conditions: Homo sapiens, ChaGo-K-1;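 further: growth inhibition of ChaGo-K-1 cells, read out with a cell viability assay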
Description: SANGER: Inhibition of human ChaGo-K-1 cell growth in a cell viability assay.

KURAMOCHI = experiment: cells; format: functional, cell-based, Homo sapiens; conditions: Homo sapiens, KURAMOCHI;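 further: growth inhibition of KURAMOCHI cells, read out with a cell viability assay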
Description: SANGER: Inhibition of human KURAMOCHI cell growth in a cell viability assay.

NCI-H82 = experiment: cells; format: functional, cell-based, Homo sapiens; conditions: Homo sapiens, NCI-H82;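 further: growth inhibition of NCI-H82 cells, measured with a cell viability readout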
Description: SANGER: Inhibition of human NCI-H82 cell growth in a cell viability assay.

AGS = experiment: cells; format: functional, cell-based, Homo sapiens; conditions: Homo sapiens, AGS;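 further: growth inhibition of AGS cells, determined with a cell viability assay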
Description: SANGER: Inhibition of human AGS cell growth in a cell viability assay.

KP-4 = experiment: cells; format: functional, cell-based, Homo sapiens; conditions: Homo sapiens, KP-4;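 further: human KP-4 cells, with growth inhibition read out through a cell viability assay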
Description: SANGER: Inhibition of human KP-4 cell growth in a cell viability assay.

NY = experiment: cells; format: functional, cell-based, Homo sapiens; conditions: Homo sapiens, NY
Description: SANGER: Inhibition of human NY cell growth in a cell viability assay.

LN-405 = experiment: cells; format: functional, cell-based, Homo sapiens; conditions: Homo sapiens, LN-405
Description: SANGER: Inhibition of human LN-405 cell growth in a cell viability assay.

LB647-SCLC = experiment: cells; format: functional, cell-based, Homo sapiens; conditions: Homo sapiens, LB647-SCLC;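 further: cell growth inhibition, read out by a viability assay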
Description: SANGER: Inhibition of human LB647-SCLC cell growth in a cell viability assay.

COR-L105 = experiment: cells; format: functional, cell-based, Homo sapiens; conditions: Homo sapiens, COR-L105
Description: SANGER: Inhibition of human COR-L105 cell growth in a cell viability assay.

A101D = experiment: cells; format: functional, cell-based, Homo sapiens; conditions: Homo sapiens, A101D;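 further: growth inhibition of the cell line, measured with a viability assay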
Description: SANGER: Inhibition of human A101D cell growth in a cell viability assay.

CAPAN-1 = experiment: cells; format: functional, cell-based, Homo sapiens; conditions: Homo sapiens, CAPAN-1;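 further: growth suppression of CAPAN-1 cells, read out by a cell viability assay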
Description: SANGER: Inhibition of human CAPAN-1 cell growth in a cell viability assay.

NCI-H1650 = experiment: cells; format: functional, cell-based, Homo sapiens; conditions: Homo sapiens, NCI-H1650;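 further: growth inhibition of human NCI-H1650 cells measured by a cell viability assay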
Description: SANGER: Inhibition of human NCI-H1650 cell growth in a cell viability assay.

NCI-H1355 = experiment: cells; format: functional, cell-based, Homo sapiens; conditions: Homo sapiens, NCI-H1355;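 further: growth inhibition of human NCI-H1355 cells, read out by a cell viability assay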
Description: SANGER: Inhibition of human NCI-H1355 cell growth in a cell viability assay.

Panc1005 = experiment: cells; format: functional, cell-based, Homo sapiens; conditions: Homo sapiens, Panc1005;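 further: growth inhibition of human PANC-10-05 cells, measured by a cell viability assay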
Description: SANGER: Inhibition of human PANC-10-05 cell growth in a cell viability assay.

NCI-H1623 = experiment: cells; format: functional, cell-based, Homo sapiens; conditions: Homo sapiens, NCI-H1623;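 further: cell viability assay used as the read-out for growth inhibition of NCI-H1623 cells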
Description: SANGER: Inhibition of human NCI-H1623 cell growth in a cell viability assay.

WSU-NHL = experiment: cells; format: functional, cell-based, Homo sapiens; conditions: Homo sapiens, WSU-NHL;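 further: growth inhibition of human WSU-NHL cells, read out with a cell viability assay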
Description: SANGER: Inhibition of human WSU-NHL cell growth in a cell viability assay.

EVSA-T = experiment: cells; format: functional, cell-based, Homo sapiens; conditions: Homo sapiens, EVSA-T;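 further: growth inhibition of EVSA-T cells, read out with a cell viability assay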
Description: SANGER: Inhibition of human EVSA-T cell growth in a cell viability assay.

NOS-1 = experiment: cells; format: functional, cell-based, Homo sapiens; conditions: Homo sapiens, NOS-1;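 further: growth inhibition of the human NOS-1 cell line, read out with a cell viability assay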
Description: SANGER: Inhibition of human NOS-1 cell growth in a cell viability assay.

NCI-H69 = experiment: cells; format: functional, cell-based, Homo sapiens; conditions: Homo sapiens, NCI-H69;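 further: growth inhibition of the cell line, read out with a cell viability assay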
Description: SANGER: Inhibition of human NCI-H69 cell growth in a cell viability assay.

S-117 = experiment: cells; format: functional, cell-based, Homo sapiens; conditions: Homo sapiens, S-117
Description: SANGER: Inhibition of human S-117 cell growth in a cell viability assay.

LB1047-RCC = experiment: cells; format: functional, cell-based, Homo sapiens; conditions: Homo sapiens, LB1047-RCC
Description: SANGER: Inhibition of human LB1047-RCC cell growth in a cell viability assay.

NCI-H719 = experiment: cells; format: functional, cell-based, Homo sapiens; conditions: Homo sapiens, NCI-H719;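 further: growth inhibition of the cultured cell line, read out with a viability assay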
Description: SANGER: Inhibition of human NCI-H719 cell growth in a cell viability assay.

5637 = experiment: cells; format: functional, cell-based, Homo sapiens; conditions: Homo sapiens
Description: SANGER: Inhibition of human 5637 cell growth in a cell viability assay.

BHY = experiment: cells; format: functional, cell-based, Homo sapiens; conditions: Homo sapiens, BHY;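 further: cell growth inhibition read out by a viability assay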
Description: SANGER: Inhibition of human BHY cell growth in a cell viability assay.

WM-115 = experiment: cells; format: functional, cell-based, Homo sapiens; conditions: Homo sapiens, WM-115
Description: SANGER: Inhibition of human WM-115 cell growth in a cell viability assay.

BL-70 = experiment: SANGER: Inhibition of human BL-70 cell growth in a cell viability assay.; format: functional, cell-based; conditions: Homo sapiens, BL-70
NCI-H1573 = experiment: cells; format: functional, cell-based, Homo sapiens; conditions: Homo sapiens, NCI-H1573;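 further: growth inhibition of NCI-H1573 cells, read out with a cell viability assay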
Description: SANGER: Inhibition of human NCI-H1573 cell growth in a cell viability assay.

COLO-741 = experiment: cells; format: functional, cell-based, Homo sapiens; conditions: Homo sapiens, COLO-741
Description: SANGER: Inhibition of human COLO-741 cell growth in a cell viability assay.

SMILES: CCC/C=C/C=C/C(=O)O[C@H]1/C(=C/C(=O)OC)C[C@H]2C[C@H]([C@@H](C)O)OC(=O)C[C@H](O)C[C@@H]3C[C@H](OC(C)=O)C(C)(C)[C@](O)(C[C@@H]4C/C(=C/C(=O)OC)C[C@H](/C=C/C(C)(C)[C@]1(O)O2)O4)O3 [BRYOSTATIN 1]
- pIC50 (NCI-H1770): < 8.10
- pIC50 (BEN): < 8.10
- pIC50 (NCI-H522): < 8.10
- pIC50 (GP5d): < 8.10
- pIC50 (EB-3): < 8.10
- pIC50 (GI-ME-N): < 8.10
- pIC50 (EGI-1): < 8.10
- pIC50 (MKN-7): < 8.10
- pIC50 (RS4-11): < 8.10
- pIC50 (NCI-H2141): < 8.10
- pIC50 (SCC-9): < 8.10
- pIC50 (BB49-HNC): < 8.10
- pIC50 (A-375): < 8.10
- pIC50 (NCI-H1437): < 8.10
- pIC50 (DU-4475): < 8.10
- pIC50 (LAN-6): < 8.10
- pIC50 (U-118-MG): < 8.10
- pIC50 (Ca9-22): < 8.10
- pIC50 (HD-MY-Z): < 8.10
- pIC50 (NCI-H1155): < 8.10
- pIC50 (ChaGo-K-1): < 8.10
- pIC50 (KURAMOCHI): < 8.10
- pIC50 (NCI-H82): < 8.10
- pIC50 (AGS): < 8.10
- pIC50 (KP-4): < 8.10
- pIC50 (NY): < 8.10
- pIC50 (LN-405): < 8.10
- pIC50 (LB647-SCLC): < 8.10
- pIC50 (COR-L105): < 8.10
- pIC50 (A101D): < 8.10
- pIC50 (CAPAN-1): < 8.10
- pIC50 (NCI-H1650): < 8.10
- pIC50 (NCI-H1355): < 8.10
- pIC50 (Panc1005): < 8.10
- pIC50 (NCI-H1623): < 8.10
- pIC50 (WSU-NHL): < 8.10
- pIC50 (EVSA-T): < 8.10
- pIC50 (NOS-1): < 8.10
- pIC50 (NCI-H69): < 8.10
- pIC50 (S-117): 8.23
- pIC50 (LB1047-RCC): < 8.10
- pIC50 (NCI-H719): < 8.10
- pIC50 5637: < 8.10
- pIC50 (BHY): < 8.10
- pIC50 (WM-115): < 8.10
- pIC50 (BL-70): < 8.10
- pIC50 (NCI-H1573): 8.63
- pIC50 (COLO-741): < 8.10

SMILES: Cc1cc([N+](=O)[O-])ccc1NS(=O)(=O)c1cc(Cl)ccc1Cl
- pIC50 (NCI-H1770): 4.77
- pIC50 (BEN): 5.64
- pIC50 (NCI-H522): 5.85
- pIC50 (GP5d): 5.94
- pIC50 (EB-3): 5.37
- pIC50 (GI-ME-N): 4.94
- pIC50 (EGI-1): 4.61
- pIC50 (MKN-7): < 4.49
- pIC50 (RS4-11): 4.88
- pIC50 (NCI-H2141): < 4.49
- pIC50 (SCC-9): < 4.49
- pIC50 (BB49-HNC): < 4.49
- pIC50 (A-375): 5.45
- pIC50 (NCI-H1437): 5.56
- pIC50 (DU-4475): 5.11
- pIC50 (LAN-6): 4.69
- pIC50 (U-118-MG): < 4.49
- pIC50 (Ca9-22): 5.22
- pIC50 (HD-MY-Z): 4.85
- pIC50 (NCI-H1155): < 4.49
- pIC50 (ChaGo-K-1): 5.38
- pIC50 (KURAMOCHI): 5.88
- pIC50 (NCI-H82): 4.74
- pIC50 (AGS): 5.27
- pIC50 (KP-4): 5.78
- pIC50 (NY): 5.48
- pIC50 (LN-405): 4.93
- pIC50 (LB647-SCLC): < 4.49
- pIC50 (COR-L105): 5.18
- pIC50 (A101D): 5.34
- pIC50 (CAPAN-1): 5.62
- pIC50 (NCI-H1650): 5.07
- pIC50 (NCI-H1355): 5.53
- pIC50 (Panc1005): 5.27
- pIC50 (NCI-H1623): < 4.49
- pIC50 (WSU-NHL): 4.93
- pIC50 (EVSA-T): 4.92
- pIC50 (NOS-1): 5.69
- pIC50 (NCI-H69): < 4.49
- pIC50 (S-117): > 6.90
- pIC50 (LB1047-RCC): 5.17
- pIC50 (NCI-H719): < 4.49
- pIC50 5637: 5.14
- pIC50 (BHY): 5.35
- pIC50 (WM-115): < 4.49
- pIC50 (BL-70): 5.29
- pIC50 (NCI-H1573): < 4.49
- pIC50 (COLO-741): 5.35
